Measurements: publication PMC12778052 (Science Advances, 2026)

Legend:
T24 cells = assay: [^68Ga]AJ647 binding after EV preincubation, T24 cells; assay type: cell-based; details: T24 (Nectin-4-negative); EV 60 nM preincubated 30 min
Protocol: An FITC analog of EV was made using the manufacturer’s recommended protocol (Thermo Fisher Scientific, no. 46409). Briefly, 1 mg of EV was incubated with FITC-NHS ester at a 5:1 molar ratio overnight at 4°C at 0.1 M borate buffer (pH 8.0). Excess unbound FITC-NHS ester was washed off by performing buffer exchange with 1× PBS using three rounds of ultracentrifugation at 4000g for 10 min (3-kDa molecular weight cutoff filter, Amicon, no. UFC900308). The effect of nonradioactive AJ647 on EV binding to Nectin-4 was assessed by incubating HT1376 cells at varying concentrations (5.4 μM to 0.01 nM using a serial dilution) of AJ647 for 30 min at 4°C. Unbound AJ647 was washed off using 3 ml of cold PBS. Cells were incubated with EV-FITC for 30 min at 4°C. Excess EV-FITC was washed off using 3 ml of cold PBS. The mean fluorescence intensity was measured using a flow cytometer, and data are reported as the percentage of 0 nM AJ647. For the effect of EV on [^68Ga]AJ647 binding, EV was used at concentrations of 90 to 0.04 nM using serial dilutions for 30 min at 4°C. Unbound EV was washed off using cold PBS. Then, cells were incubated with 1 μCi of [^68Ga]AJ647 for an additional 30 min. Excess [^68Ga]AJ647 was washed off three times with cold PBS. Samples were read in an automated gamma counter, and data are reported as the percentage of 1-μCi standard counts.

HT1376 tumors = assay: Pilot in vivo EV effect on tumor uptake of [^68Ga]AJ647, HT1376 tumors; design: species or system NSG mice; details: EV 20 mg/kg i.v. single dose, 24 hours before tracer, ex vivo 60 min, n = 5
Protocol: Male NSG mice were implanted subcutaneously with HT1376 and SCaBER cells (4 million each) on the right and left rostral ends, respectively. On day 25 after cell inoculation (average tumor volume, 200 ± 35 mm^3), mice were randomized and treated with a single dose of either saline or EV ADC (20 mg/kg) injected intravenously (volume not exceeding 300 μl) or with 200 μl of saline (n = 7 per group). Twenty-four hours following the EV dose, [^68Ga]AJ647 PET scans (n = 2 per group) were acquired, and ex vivo biodistribution (n = 5 per group) was performed using the protocols mentioned above.

RT112 cells = assay: In vitro binding of [^68Ga]AJ647 to RT112 cells; assay type: cell-based; details: 1 × 10^6 cells, ~1 μCi, 30 min, 4°C, means ± SD, n = 4
Protocol: In vitro binding of [^68Ga]AJ647 to T24, SCaBER, RT112, UC9, UC14, and HT1376 cells was determined by incubating 1 × 10^6 cells with ~1 μCi of [^68Ga]AJ647 for 30 min at 4°C. After incubation, cells were washed three times with ice-cold PBS containing 0.1% Tween 20 and counted on an automated gamma counter. All cell radioactivity uptake studies were performed in quadruplicate for each cell line and repeated three times.

Compound | effect on [^68Ga]AJ647 binding (T24 cells) | reduction in [^68Ga]AJ647 tumor uptake vs saline controls (HT1376 tumors) [%] | [^68Ga]AJ647 uptake (RT112 cells) [%IA]
enfortumab vedotin [EV] | but not in Nectin-4–negative T24 cells | 84 | –
CSCC[C@@H]1NC(=O)[C@@H]2CSCCC(=O)N3CN(CN(C3)C(=O)CCSC[C@H](NC(=O)CCOCCOCCOCCOCCOCCOCCOCCOCCOCCOCCOCCOCCNC(=O)CN3CCN(CC(=O)O)CCN(CC(=O)O)CC3)C(=O)N3CCC[C@H]3C(=O)N[C@@H](Cc3cccc4ccccc34)C(=O)N[C@@H](CC(=O)O)C(=O)N2)C(=O)CCSC[C@@H](C(N)=O)NC(=O)[C@H](Cc2c[nH]c3ccccc23)NC(=O)[C@@H]2C[C@@H](O)CN2C(=O)[C@@H]2CCCN2C(=O)[C@H]([C@@H](C)O)NC(=O)[C@H](CO)NC(=O)[C@H](Cc2c[nH]c3ccccc23)NC(=O)[C@@H](CC(=O)O)NC(=O)[C@H](CCCCNC(=N)N)NC1=O [[^68Ga]AJ647, metal not drawn] | – | – | 1.9 ± 0.18
